Measurements: patent publication US10919891B2, “Heterocyclic compound” (TAKEDA PHARMACEUTICAL COMPANY LIMITED, priority 2017, dated 2021)

Tests used:
CYP3A4 = target: T1, CYP3A4 (Homo sapiens, UniProt P08684); experiment: CYP3A4 TDI (human liver microsomes, testosterone 6β-hydroxylation); format: in vitro ADME; conditions: test compound 30 μM, 60 min vs 0 min preincubation with NADPH, 37° C.
T1 construct: Human liver microsomes purchased from XenoTech, LLC (Lenexa, Kans.) was used; tissue XenoTech, LLC; host or cells: human liver microsomes
Protocol: Human liver microsomes purchased from XenoTech, LLC (Lenexa, Kans.) was used. Test compounds were dissolved in acetonitrile, acetonitrile/methanol (1:1, v/v) or DMSO/acetonitrile (1:4, v/v). To a human liver microsomes solution adjusted with phosphate buffer (pH 7.4), the test compound solution was added to obtain a human liver microsomes reaction solution having the test compound concentration of 30 μM. To the human liver microsome reaction solution, NADPH production system was added, and the mixture was preincubated at 37° C. for 0 minutes or 60 minutes. After the preincubation, probe substrate testosterone was added, and testosterone metabolite 6β-hydroxytestosterone was analyzed by LC/MS/MS to evaluate CYP3A4 enzymatic activity.
The enzyme activity (% of control) at each preincubation point was calculated from the following equation: % of control=[(activity of test compound addition group)/(activity of test compound non-addition group)]×100.
The remaining activity (% remaining) after 60 minutes of preincubation was calculated from the following equation: Remaining activity (%)=[activity after 60 minutes (% of control60 min)]/[activity after 0 minutes (% of control0 min)]×100.

CSQ-Tg mice [1] = experiment: Effect on survival rate of heart failure animal model; format: in vivo
Description: In this Test Example, effect of the compound of Example 1 on survival rate was examined using heart failure animal models. The mice reported in Larry R. Jones et al., J. Clin. Invest. 101: 1385-1393, 1998 were obtained from the University of Pennsylvania and bred in-house, which were cardiac-specific transgenic mice of Calsequestrin (CSQ)(CSQ-Tg mice) as the heart failure animal models. In the study, female mice were used, and dosing was started from the age of 5 weeks. The animals were fed with chow (CE-2, CLEA Japan, Inc.) and tap water under the condition of room temperature of 20 to 26° C., humidity of 40 to 70%, and lighting time of 12 hours/day (7:00 to 19:00). As already reported, in the CSQ-Tg mice, Ca^2+ intracellular release was suppressed, myocardial contraction was reduced, cardiac output was decreased, and cardiac hypertrophy and heart failure were developed.
To 5-week old female CSQ-Tg mice, the compound of Example 1 was orally administered at a dose of 10 mg/kg bodyweight/day with a frequency of once daily (QD) for 47 days (n=24). While, to the control group, vehicle (0.5% methylcellulose aqueous solution) was administered (n=24).
To 5-week old female CSQ-Tg mice, the compound of Example 1 was orally administered at a dose of 10 mg/kg bodyweight/day in combination with candesartan cilexetil (1 mg/kg bodyweight/day) with a frequency of once daily (QD) for 68 days (n=18). […]

CSQ-Tg mice [2] = experiment: Heart weight lowering effect in heart failure animal model; format: in vivo; conditions: for Heart weight (Mean ± standard deviation (mg)): female CSQ-Tg mice
Protocol: In this Test Example, the heart weight lowering effect of the compound of Example 1 was evaluated using CSQ-Tg mice as animal model for heart failure.
The compound of Example 1 was suspended in 0.5% methylcellulose aqueous solution (hereinafter, in Test Examples, sometimes referred to as “vehicle”) (10 mL/kg). The obtained suspension was orally administered to 5-week old female CSQ-Tg mice developing heart failure at a dose of 10 mg/kg bodyweight/day (n=7) or 30 mg/kg bodyweight/day (n=10) once daily (QD) for 21 days. For a negative control (vehicle administration group), 0.5% methylcellulose aqueous solution (n=7) was administered. Then, weights of the hearts were measured. The measurement of the weights was carried out by fractionating each of the hearts into four: left ventricle, right ventricle, left atrium, and right atrium. The sum of the weights of the four fractions was defined as the heart weight.

[3] = 10 mg/kg bodyweight/day oral QD for 21 days
[4] = 30 mg/kg bodyweight/day oral QD for 21 days

T1 sequence (P08684 whole entry): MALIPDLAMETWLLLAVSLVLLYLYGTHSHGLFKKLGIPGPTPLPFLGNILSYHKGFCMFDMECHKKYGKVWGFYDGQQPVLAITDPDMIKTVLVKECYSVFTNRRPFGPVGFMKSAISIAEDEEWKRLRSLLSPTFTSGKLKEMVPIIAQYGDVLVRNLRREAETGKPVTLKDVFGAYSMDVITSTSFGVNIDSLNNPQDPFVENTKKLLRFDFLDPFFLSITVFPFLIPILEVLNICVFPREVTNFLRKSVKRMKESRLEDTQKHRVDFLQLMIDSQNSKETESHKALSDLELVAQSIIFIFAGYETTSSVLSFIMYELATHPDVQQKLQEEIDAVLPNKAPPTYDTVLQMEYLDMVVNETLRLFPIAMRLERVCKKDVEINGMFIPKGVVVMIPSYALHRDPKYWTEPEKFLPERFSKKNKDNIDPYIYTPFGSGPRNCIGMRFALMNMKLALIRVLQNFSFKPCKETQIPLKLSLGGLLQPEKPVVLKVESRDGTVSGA

CC1(C)C[C@H](c2ccccc2)Nc2c(C(=O)N3C[C@@H]4C[C@]4(c4ccc(Cl)c(Cl)c4)C3)cnn21 [Example 1, ((1S,5R)-1-(3,4-Dichlorophenyl)-3-azabicyclo[3.1.0]hex-3-yl)((5R)-7,7-dimethyl-5-phenyl-4,5,6,7-tetrahydropyrazolo[1,5-a]pyrimidin-3-yl)methanone]
Remaining Activity (%) (CYP3A4): 86.0%
Survival rates, log-rank test p (CSQ-Tg mice [1]; 10 mg/kg bodyweight/day co-administered with candesartan cilexetil (1 mg/kg bodyweight/day) QD 68 days vs candesartan cilexetil mono-administration (FIG. 2)): < 0.001
Survival rates, log-rank test p (CSQ-Tg mice [1]; 10 mg/kg bodyweight/day oral QD for 47 days vs vehicle administration group (FIG. 1)): < 0.025
Left atrium weight (Mean ± standard deviation (mg)) (CSQ-Tg mice [2]; [3]): 10.7 ± 3.5 mg
Left ventricle weight (Mean ± standard deviation (mg)) (CSQ-Tg mice [2]; [3]): 160.1 ± 11.9 mg
Right atrium weight (Mean ± standard deviation (mg)) (CSQ-Tg mice [2]; [3]): 6.2 ± 3.1 mg
Right ventricle weight (Mean ± standard deviation (mg)) (CSQ-Tg mice [2]; [3]): 44.9 ± 5.1 mg
Heart weight (Mean ± standard deviation (mg)) (CSQ-Tg mice [2]; [3]): 221.9 ± 18.2 mg
Left atrium weight (Mean ± standard deviation (mg)) (CSQ-Tg mice [2]; [4]): 9.6 ± 2.6 mg
Left ventricle weight (Mean ± standard deviation (mg)) (CSQ-Tg mice [2]; [4]): 153.2 ± 12.7 mg
Right atrium weight (Mean ± standard deviation (mg)) (CSQ-Tg mice [2]; [4]): 5.8 ± 2.4 mg
Heart weight (Mean ± standard deviation (mg)) (CSQ-Tg mice [2]; [4]): 212.5 ± 21.9 mg
Right ventricle weight (Mean ± standard deviation (mg)) (CSQ-Tg mice [2]; 30 mg/kg bodyweight/day oral QD for 21 days, ** Williams' multiple comparison test (p < 0.025)): 43.9 ± 6.9** mg
